Source: patent US20230045112A1, “DISULFIRAM AND OTHER REDOX-RELATED COMPOSITIONS FOR BRAIN TUMORS” (Texas Tech University System, priority 2014, published 2023)
Read-outs that look alike come from different tables or passages of the source.

How the values were obtained:
[1] = cited from earlier work
rMGMT = target: T1, rMGMT (Homo sapiens, UniProt P16455); assay: In vitro degradation of DSF treated rMGMT in rabbit reticulocyte lysates; assay type: biochemical
T1 construct: hexa-histidine; made in house; host or cells: E. coli
T1 sequence (P16455 1-207): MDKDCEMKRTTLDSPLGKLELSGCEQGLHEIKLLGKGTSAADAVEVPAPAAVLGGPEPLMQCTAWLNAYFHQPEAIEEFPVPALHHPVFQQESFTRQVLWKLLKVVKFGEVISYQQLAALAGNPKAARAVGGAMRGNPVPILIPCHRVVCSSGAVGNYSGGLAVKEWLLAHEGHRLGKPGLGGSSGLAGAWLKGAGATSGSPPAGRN
Text: DSF-exposed MGMT samples were dialyzed to remove the residual drug prior to the degradation assays. […] The protein bands were quantified by densitometry.
The samples were immunoblotted and probed with MGMT antibodies (right panel). The densitometric quantitation of protein bands on the western blots is shown as a line graph on the left. […] Cell lysates were western blotted for the MGMT protein. […] Kinetics of DNA interstrand crosslinks formed in UW228 cells after treatment with […] BCNU or […] melphalan is shown. […] They were then exposed to BCNU or melphalan. At times specified, the cells were harvested, DNA isolated and the extent of interstrand crosslinking of DNA was determined using the ethidium bromide fluorescence assay. Values are mean+S.D. The results were significant at P<0.05. […] The cells were trypsinized at times indicated and analyzed by flow cytometry.
Since the MGMT inactivated by BG is degraded through ub-proteolysis, it was of interest to investigate the mode of elimination of DSF-modified MGMT protein. Therefore, first, we compared the in vitro degradation of DSF-treated and untreated rMGMT protein in rabbit reticulocyte lysates (RL), which are known to promote the proteasomal degradation. The control and DSF-modified MGMT proteins were incubated with RL in the presence of Mg++, ATP and ubiquitin at 37° C. The reaction mixtures were blotted and probed with MGMT antibodies. […] To show the involvement of the ub-proteolysis in cells a clinically used proteasome inhibitor. […] Taken together, the results presented in FIGS. 4A-4B confirm that DSF-modified MGMT is perceived as a structurally altered/damaged protein in cells and eliminated through the ub-proteasomal route.

[2] = target: T2, cellular MGMT (UW228 cell-free extracts) (Homo sapiens, UniProt P16455); assay: MGMT DNA repair activity in UW228 cell-free extracts treated with DSF; assay type: biochemical; settings: 25 μM DSF, 20 minutes
T2 construct: endogenous in cells; host or cells: UW228, T98G
Method: (§1) The DNA repair activity of MGMT was measured by the transfer of [3H]-labeled methyl groups from the O^6-position of guanine in the DNA substrate to the MGMT protein as described previously. The DNA substrate enriched in O6-methylguanine was prepared by reacting [3H]-methylnitrosourea (GE Healthcare, 60 Ci/mmol). Briefly, the cell pellets were washed with cold PBS, disrupted by sonication in the assay buffer (30 mM Tris-HCl pH 7.5, 0.5 mM DTT, 0.5 mM EDTA, 5% glycerol, and 20 μM spermidine) and centrifuged. The extracts (50-150 μg protein) were supplemented with the [3H]-DNA (10,000 cpm) and incubated at 37° C. The reactions were terminated by the addition of TCA, the DNA substrate was hydrolyzed at 80° C., and following filtration on glass fiber discs; the radioactivity present in protein precipitates was quantitated.
(§2) Cells were trypsinized, washed and MGMT activity was determined in cell extracts (top panel). The same extracts were western blotted for MGMT protein. WB, western blot. […] Cells were exposed to CuDSF and analyzed for MGMT activity and protein as above. […] To delineate the appropriate time for alkylating drug treatments following MGMT inhibition, next, the time course of MGMT depletion by these three interventions was studied.

MGMT [3] = target: T3, MGMT (Homo sapiens, UniProt P16455); assay: MGMT activity and protein in MGMT-proficient human cancer cell lines (HT29, T47D, HCT116); assay type: cell-based; set-up: endogenous in cells; host or cells: HT29, T47D, HCT116
T3 sequence (P16455 1-207): T1 sequence (P16455 1-207)

[4] = target: T4, purified recombinant MGMT (rMGMT) (Homo sapiens, UniProt P16455); assay: MGMT DNA repair activity ([3H]-methyl transfer), purified recombinant MGMT treated with DSF; assay type: biochemical
T4 construct: hexa-histidine; made in house; host or cells: E. coli
Method: as §1, §2

MGMT [5] = target: T3, MGMT; assay: MGMT activity and protein (western blot) in drug-treated T98G and UW228 brain tumor cells; assay type: cell-based; set-up: endogenous in cells; host or cells: UW228, T98G
Method: as §1
After trypsinization, the cell pellets were washed with cold PBS, and subjected to sonication in 50 mM Tris-HCl (pH 8.0) containing 1% glycerol, 1 mM EDTA, 0.5 mM PMSF and 2 mM benzamidine and centrifuged. Equal protein amounts from different treatments were electrophoresed on 12% SDS-polyacrylamide gels. Proteins were electro-transferred to Immobilon-P membranes. The membranes were blocked with 5% non-fat dry milk in Trisbuffered saline (TBS; pH 8.0) containing 0.1% Tween 20 for 3 hours, and subsequently incubated with appropriate primary antibodies. Antigen-antibody complexes were visualized by enhanced chemiluminiscence (Pierce Company). Band intensities were quantified using a Bio-Rad Versa Doc Imaging system.
as §2
At times indicated, MGMT activity and protein levels were assessed.
MGMT performs a stoichiometric reaction to accomplish the DNA repair and is not recycled to its active form. Instead, the inactivated protein is degraded and fresh translation has to occur to restore the MGMT levels in cells. The rate and extent of this recovery is an important factor in the extent of damage introduced to the normal cell genomes such as the bone marrow stem cells. […] MGMT protein and activity levels were analyzed during the depletion and repletion (FIG. 3B).

UW228 cells [6] = assay: MTT cell survival assay; assay type: cell-based, human
Method: (§3) These were performed using the yellow tetrazolium dye (3-(4, 5-dimethylthiazolyl-2)-2, 5-diphenyl tetrazolium bromide) (MTT) as described previously. […] The purple color developed due to formazan was measured at 570 nm using a […]luor Plus plate reader (Tecan Inc.). Cell proliferation was also assessed by colony formation assays on soft agar.
(§4) Cells were then cultured for 48 hours before performing the MTT assays. […] The effect of drugs on cell survival was computed at each concentration. The data represents the results of three independent experiments performed in triplicate.

UW228 cells [7] = assay: Soft agar colony formation assay; assay type: cell-based, human; settings: 50 μM DSF then BCNU or TMZ
Method: as §3, §4

For `CCN(CC)C(=S)SSC(=S)N(CC)CC` [DSF, 1,1′,1″,1′″-[disulfanediylbis(carbonothioylnitrilo)]tetraethane], the “partition coefficient Log P” value [1] is given as 2.8, the “disappearance of DSF-modified rMGMT protein” value (“disappearance” below) (rMGMT; 10 minutes of incubation) is given as 30% and the “disappearance” value (rMGMT; 25 minutes of incubation) is given as 45%. The “disappearance” value (rMGMT; 40 minutes of incubation) was 70%, the “repair activity in the extracts curtailed” value [2] was 75% and the “degradation of MGMT” value (MGMT [3]; 200 μM, 12 hours) was “about 70%”. The inhibition at 400 µM (MGMT [3]; HT29 and HCT116 cells, 400 μM, 20 hour) was 95%, the inhibition at 25 µM [4] was 40% and the “duration of inactivation of MGMT” value (MGMT [5]) was over 30 h. For the same molecule, the “duration of suppression of MGMT activity in cell cultures” value (MGMT [5]) was 24 to 36 h, the inhibition at 50 µM (MGMT [5]; 50 μM in culture medium, at 12 hours, maintained till 24 hours, read-out: maximal inhibition of MGMT activity and protein) was 75% and the inhibition at 50 µM (MGMT [5]; UW228 cells, 50 μM, 12 hours, read-out: loss/inhibition of MGMT activity at 12 hours post-drug treatment) was 75%. The “reversibility of DSF modification of MGMT by DTT” value (MGMT [5]; UW228 cells, 10 mM DTT) was “largely irreversible”, the “recovery of MGMT activity, % of control levels” value (MGMT [5]; UW228 cells, 48 hours post-drug in drug-free media after 50 μM for 12 hours) was ~95 % of control levels and the inhibition at 50 µM (MGMT [5]; read-out: inhibition of MGMT activity) was about 70%. The “effect on melphalan-induced cell killing” value (UW228 cells [6]; 50 μM DSF preincubation 12 hours) was “did not increase the melphalan-induced cell killing”, the “potentiation of BCNU cytotoxicity” value (UW228 cells [6]; 50 μM DSF preincubation 12 hours, BCNU 4 days) was 3 fold and the “increased cytotoxicity of TMZ+DSF compared to TMZ alone” value (UW228 cells [6]; 50 μM DSF preincubation 12 hours, TMZ 4 days) was 4 to 5 fold. For the same molecule, the “cell killing by DSF alone” value (UW228 cells [6]; 50 μM DSF, 24 hours, then cultured 48 hours) was “less than 5%” and the “enhanced cytotoxicity of BCNU or TMZ, colony formation” value (UW228 cells [7]) was 3 fold.
